Source: PubChem BioAssay (NCI)
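Cultured in 96-well plates, cells were exposed to test compound for 48 hours across five concentrations. TGI denotes the concentration required for complete inhibition of growth.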

How the values were obtained:
Assay in all cases: NCI anticancer screen, dose series, 48 h
ACHN renal = test system: ACHN renal
CCRF-CEM leukemia = test system: CCRF-CEM leukemia
DU-145 prostate = test system: DU-145 prostate
OVCAR-4 ovarian = test system: OVCAR-4 ovarian
OVCAR-5 ovarian = test system: OVCAR-5 ovarian
PC-3 prostate = test system: PC-3 prostate
SF-295 CNS = test system: SF-295 CNS
SR leukemia = test system: SR leukemia

Cc1ccc2c(=O)cc(-c3ccc(-c4ccccc4)s3)[nH]c2n1
TGI (ACHN renal): > 100 µM
TGI (CCRF-CEM leukemia): > 100 µM
TGI (DU-145 prostate): > 100 µM
TGI (OVCAR-4 ovarian): > 100 µM
TGI (OVCAR-5 ovarian): > 100 µM
TGI (PC-3 prostate): 85.5 µM
TGI (SF-295 CNS): 99.5 µM
TGI (SR leukemia): 8.35 µM

Cc1ccc2nc(NC(=O)/C(Cc3nc4ccc(Cl)cc4[nH]c3=O)=N\NC(C)(C)C)sc2c1
TGI (ACHN renal): > 100 µM
TGI (CCRF-CEM leukemia): > 100 µM
TGI (DU-145 prostate): > 100 µM
TGI (OVCAR-4 ovarian): > 100 µM
TGI (OVCAR-5 ovarian): > 100 µM
TGI (PC-3 prostate): > 100 µM
TGI (SF-295 CNS): > 100 µM
TGI (SR leukemia): > 100 µM

CCOc1ccc(-n2nnc3c(N)nc(N)nc32)cc1
TGI (ACHN renal): > 100 µM
TGI (CCRF-CEM leukemia): > 100 µM
TGI (DU-145 prostate): > 100 µM
TGI (OVCAR-4 ovarian): > 100 µM
TGI (OVCAR-5 ovarian): > 100 µM
TGI (PC-3 prostate): > 100 µM
TGI (SF-295 CNS): > 100 µM
TGI (SR leukemia): > 100 µM

O=C1NC(=S)N(c2ccccc2)C1=O
TGI (ACHN renal): > 100 µM
TGI (CCRF-CEM leukemia): > 100 µM
TGI (DU-145 prostate): > 100 µM
TGI (OVCAR-4 ovarian): > 100 µM
TGI (OVCAR-5 ovarian): > 100 µM
TGI (PC-3 prostate): > 100 µM
TGI (SF-295 CNS): > 100 µM
TGI (SR leukemia): > 100 µM

CC(C)CN=C(N)N=C(N)N
TGI (ACHN renal): > 100 µM
TGI (DU-145 prostate): > 100 µM
TGI (OVCAR-4 ovarian): > 100 µM
TGI (OVCAR-5 ovarian): > 100 µM
TGI (PC-3 prostate): > 100 µM
TGI (SF-295 CNS): > 100 µM
TGI (SR leukemia): > 100 µM

CC1(O)OC(=O)C2=C1CCC1C2CCC2(C)C(O)CCC12 (centres undefined)
TGI (ACHN renal): > 100 µM
TGI (CCRF-CEM leukemia): > 100 µM
TGI (DU-145 prostate): > 100 µM
TGI (OVCAR-4 ovarian): > 100 µM
TGI (OVCAR-5 ovarian): > 100 µM
TGI (SF-295 CNS): > 100 µM
TGI (SR leukemia): > 100 µM

O=C(CSC1=NCCN1)Nc1ccccc1
TGI (ACHN renal): 53.8 µM
TGI (CCRF-CEM leukemia): > 100 µM
TGI (DU-145 prostate): > 100 µM
TGI (OVCAR-4 ovarian): > 100 µM
TGI (OVCAR-5 ovarian): > 100 µM
TGI (PC-3 prostate): 52.6 µM
TGI (SF-295 CNS): > 100 µM
TGI (SR leukemia): > 100 µM

Cc1nc(-c2ccc(N=Cc3ccc(N(CCOS(C)(=O)=O)CCOS(C)(=O)=O)cc3C)cc2)cs1
TGI (ACHN renal): 19.2 µM
TGI (CCRF-CEM leukemia): > 100 µM
TGI (DU-145 prostate): > 100 µM
TGI (OVCAR-4 ovarian): > 100 µM
TGI (OVCAR-5 ovarian): > 100 µM
TGI (PC-3 prostate): > 100 µM
TGI (SF-295 CNS): > 100 µM
TGI (SR leukemia): > 100 µM

Nc1nc(Cl)c(N)c(NCC2(CO)CC(CCCc3ccccc3)C2)n1 (centres undefined)
TGI (ACHN renal): 99.7 µM
TGI (CCRF-CEM leukemia): 7.16 µM
TGI (DU-145 prostate): > 100 µM
TGI (OVCAR-4 ovarian): > 100 µM
TGI (OVCAR-5 ovarian): > 100 µM
TGI (PC-3 prostate): > 91.5 µM
TGI (SF-295 CNS): > 59.5 µM
TGI (SR leukemia): > 100 µM

O=C(Nc1cccc(F)c1)c1cc2ccc(O)cc2oc1=Nc1ccccc1F
TGI (ACHN renal): 14.2 µM
TGI (CCRF-CEM leukemia): 6.42 µM
TGI (DU-145 prostate): 15.1 µM
TGI (OVCAR-4 ovarian): 26.8 µM
TGI (OVCAR-5 ovarian): 36.1 µM
TGI (PC-3 prostate): 24.3 µM
TGI (SF-295 CNS): 23.6 µM
TGI (SR leukemia): 39.5 µM

COc1ccc2c(c1)CCN1CCc3cc(OC)c(OC)cc3CC21 (centres undefined)
TGI (ACHN renal): > 100 µM
TGI (CCRF-CEM leukemia): > 100 µM
TGI (DU-145 prostate): > 100 µM
TGI (OVCAR-4 ovarian): > 100 µM
TGI (OVCAR-5 ovarian): > 100 µM
TGI (SF-295 CNS): > 100 µM
TGI (SR leukemia): > 100 µM

COC(=O)c1c(O)ccc2c1C1(Cc3ccccc3C1=O)C(O)O2 (centres undefined)
TGI (ACHN renal): 55.7 µM
TGI (CCRF-CEM leukemia): 11.7 µM
TGI (DU-145 prostate): > 100 µM
TGI (OVCAR-4 ovarian): 35.8 µM
TGI (OVCAR-5 ovarian): 51.7 µM
TGI (PC-3 prostate): 92.2 µM
TGI (SF-295 CNS): > 100 µM
TGI (SR leukemia): 25.3 µM

CCOP(=O)(OCC)C(C)(CC)NC (centres undefined)
TGI (ACHN renal): > 100 µM
TGI (CCRF-CEM leukemia): 77.1 µM
TGI (DU-145 prostate): > 100 µM
TGI (OVCAR-4 ovarian): > 100 µM
TGI (OVCAR-5 ovarian): > 100 µM
TGI (SF-295 CNS): > 100 µM

O=C(O)CNC(=O)c1c2ccccc2nc2ccccc12
TGI (ACHN renal): > 100 µM
TGI (CCRF-CEM leukemia): > 100 µM
TGI (DU-145 prostate): > 100 µM
TGI (OVCAR-4 ovarian): > 100 µM
TGI (OVCAR-5 ovarian): > 100 µM
TGI (PC-3 prostate): > 100 µM
TGI (SF-295 CNS): > 100 µM
TGI (SR leukemia): > 100 µM

FC(F)(F)c1ccc2nc(Sc3ccccn3)cnc2c1
TGI (ACHN renal): 52.9 µM
TGI (CCRF-CEM leukemia): > 100 µM
TGI (DU-145 prostate): > 100 µM
TGI (OVCAR-4 ovarian): > 100 µM
TGI (OVCAR-5 ovarian): > 100 µM
TGI (SF-295 CNS): > 100 µM

COc1cc([C@@H]2c3cc(O)c(OC)cc3C=C(C(N)=O)[C@H]2C(N)=O)ccc1O
TGI (ACHN renal): > 100 µM
TGI (CCRF-CEM leukemia): > 100 µM
TGI (DU-145 prostate): > 100 µM
TGI (OVCAR-5 ovarian): > 100 µM
TGI (PC-3 prostate): > 100 µM
TGI (SF-295 CNS): > 100 µM
TGI (SR leukemia): > 100 µM

Nc1ccc(CCN2CCN(CCCc3ccccc3)CC2)cc1
TGI (ACHN renal): > 100 µM
TGI (CCRF-CEM leukemia): > 100 µM
TGI (DU-145 prostate): > 100 µM
TGI (OVCAR-4 ovarian): > 100 µM
TGI (OVCAR-5 ovarian): > 100 µM
TGI (PC-3 prostate): > 100 µM
TGI (SF-295 CNS): > 100 µM
TGI (SR leukemia): > 100 µM

CC1OC(OC2C(OC(=O)[C@@H]3CC(C)(C)C[C@H]4C5=CC[C@@H]6[C@@]7(C)C[C@H](O)[C@H](OC8OC(CO)C(O)C(O)C8O)[C@@](C)(CO)[C@@H]7[C@H](O)C[C@@]6(C)[C@]5(C)CC[C@@]34C)OCC(O)C2O)C(O)C(O)C1O (some centres undefined)
TGI (ACHN renal): > 7.5 µM
TGI (CCRF-CEM leukemia): > 7.5 µM
TGI (DU-145 prostate): > 7.5 µM
TGI (OVCAR-4 ovarian): > 7.5 µM
TGI (OVCAR-5 ovarian): > 7.5 µM
TGI (PC-3 prostate): > 7.5 µM
TGI (SF-295 CNS): > 7.5 µM

CCNC1=C(NC(=O)CC)C(=O)c2ccccc2C1=O
TGI (ACHN renal): > 100 µM
TGI (CCRF-CEM leukemia): > 100 µM
TGI (DU-145 prostate): > 100 µM
TGI (OVCAR-4 ovarian): > 100 µM
TGI (OVCAR-5 ovarian): > 100 µM
TGI (PC-3 prostate): > 100 µM
TGI (SF-295 CNS): > 100 µM
TGI (SR leukemia): > 100 µM

CCC1(COC(NC(=O)c2ccccc2)(C(F)(F)F)C(F)(F)F)COC1
TGI (ACHN renal): > 100 µM
TGI (CCRF-CEM leukemia): > 100 µM
TGI (OVCAR-5 ovarian): > 100 µM
TGI (PC-3 prostate): > 100 µM
TGI (SR leukemia): > 100 µM

CCC(c1c[nH]c2ccc(Br)cc12)c1c[nH]c2ccc(Br)cc12
TGI (ACHN renal): 12.8 µM
TGI (CCRF-CEM leukemia): 13.7 µM
TGI (DU-145 prostate): 10.8 µM
TGI (OVCAR-4 ovarian): 8.11 µM
TGI (OVCAR-5 ovarian): 16.6 µM
TGI (PC-3 prostate): 17.1 µM
TGI (SF-295 CNS): 18.8 µM

CC(C)[C@@H]1ON1C(C)c1ccccc1 (some centres undefined)
TGI (ACHN renal): > 100 µM
TGI (CCRF-CEM leukemia): > 100 µM
TGI (DU-145 prostate): > 100 µM
TGI (OVCAR-4 ovarian): > 100 µM
TGI (OVCAR-5 ovarian): > 100 µM
TGI (PC-3 prostate): > 100 µM
TGI (SF-295 CNS): > 100 µM
TGI (SR leukemia): > 100 µM

CN(CCCNC(=O)c1nn(-c2ccc(Cl)cc2Cl)c2c1Cc1ccccc1-2)CCCNC(=O)c1nn(-c2ccc(Cl)cc2Cl)c2c1Cc1ccccc1-2
TGI (CCRF-CEM leukemia): 2.97 µM
TGI (DU-145 prostate): 3.18 µM
TGI (OVCAR-4 ovarian): 2.58 µM
TGI (OVCAR-5 ovarian): 2.98 µM
TGI (PC-3 prostate): 3.11 µM
TGI (SF-295 CNS): 3.15 µM

COc1ccc(C(=O)c2[nH]c(Nc3ccc(Cl)cc3)c(C(=S)Nc3ccccc3)c2N)cc1
TGI (ACHN renal): > 100 µM
TGI (CCRF-CEM leukemia): > 100 µM
TGI (DU-145 prostate): > 100 µM
TGI (OVCAR-4 ovarian): 93.6 µM
TGI (OVCAR-5 ovarian): > 100 µM
TGI (SF-295 CNS): > 100 µM
TGI (SR leukemia): > 100 µM

OC(c1ccc(-c2ccccc2)cc1)C(F)(F)c1nc2ccccc2o1 (centres undefined)
TGI (ACHN renal): > 100 µM
TGI (CCRF-CEM leukemia): > 100 µM
TGI (DU-145 prostate): > 82.7 µM
TGI (OVCAR-4 ovarian): 50.4 µM
TGI (OVCAR-5 ovarian): > 100 µM
TGI (PC-3 prostate): > 100 µM
TGI (SF-295 CNS): > 100 µM
TGI (SR leukemia): > 100 µM
